Numbers after ± are expanded uncertainties. Values belong to the compound of their own block, whether it stands above or below them.
Details: Liquid, Ebulliometric method (Recirculating still)

vapor or sublimation pressure (324.44 K): 40 ± 0.04 kPa
vapor or sublimation pressure (331.9 K): 53.33 ± 0.05 kPa
vapor or sublimation pressure (337.99 K): 66.66 ± 0.06 kPa
vapor or sublimation pressure (343.18 K): 79.99 ± 0.07 kPa
vapor or sublimation pressure (347.7 K): 93.32 ± 0.08 kPa
Compound: CCOC(C)=O [ethyl acetate]

vapor or sublimation pressure (377.54 K): 40 ± 0.09 kPa
vapor or sublimation pressure (386.69 K): 53.33 ± 0.11 kPa
vapor or sublimation pressure (394.14 K): 66.66 ± 0.14 kPa
vapor or sublimation pressure (400.51 K): 79.99 ± 0.17 kPa
vapor or sublimation pressure (406.12 K): 93.32 ± 0.19 kPa
Compound: CCc1ccccc1 [ethylbenzene]

vapor or sublimation pressure (342.77 K): 40 ± 0.05 kPa
vapor or sublimation pressure (351.08 K): 53.33 ± 0.07 kPa
vapor or sublimation pressure (357.85 K): 66.66 ± 0.08 kPa
vapor or sublimation pressure (363.64 K): 79.99 ± 0.1 kPa
vapor or sublimation pressure (368.7 K): 93.32 ± 0.11 kPa
Compound: CCCCCCC [heptane]

vapor or sublimation pressure (344.18 K): 40 ± 0.09 kPa
vapor or sublimation pressure (352.8 K): 53.33 ± 0.11 kPa
vapor or sublimation pressure (359.85 K): 66.66 ± 0.14 kPa
vapor or sublimation pressure (365.87 K): 79.99 ± 0.17 kPa
vapor or sublimation pressure (371.15 K): 93.32 ± 0.19 kPa
Compound: CC1CCCCC1 [methylcyclohexane]

More lines, now with the values behind:

Compound: Cc1cccc(C)c1 [1,3-dimethylbenzene]
vapor or sublimation pressure (380.51 K): 40 ± 0.09 kPa
vapor or sublimation pressure (389.66 K): 53.33 ± 0.11 kPa
vapor or sublimation pressure (397.13 K): 66.66 ± 0.14 kPa
vapor or sublimation pressure (403.51 K): 79.99 ± 0.17 kPa
vapor or sublimation pressure (409.09 K): 93.32 ± 0.19 kPa

Compound: Cc1ccccc1Cl [2-chlorotoluene]
vapor or sublimation pressure (398.81 K): 40 ± 0.05 kPa
vapor or sublimation pressure (408.41 K): 53.33 ± 0.06 kPa
vapor or sublimation pressure (416.25 K): 66.66 ± 0.08 kPa
vapor or sublimation pressure (422.91 K): 79.99 ± 0.09 kPa
vapor or sublimation pressure (428.76 K): 93.32 ± 0.11 kPa

Compound: Cc1ccc(Cl)cc1 [4-chlorotoluene]
vapor or sublimation pressure (401.71 K): 40 ± 0.09 kPa
vapor or sublimation pressure (411.34 K): 53.33 ± 0.11 kPa
vapor or sublimation pressure (419.2 K): 66.66 ± 0.14 kPa
vapor or sublimation pressure (425.9 K): 79.99 ± 0.17 kPa
vapor or sublimation pressure (431.77 K): 93.32 ± 0.19 kPa

Compound: c1ccccc1 [benzene]
vapor or sublimation pressure (325.6 K): 40 ± 0.04 kPa
vapor or sublimation pressure (333.56 K): 53.33 ± 0.04 kPa
vapor or sublimation pressure (340.06 K): 66.66 ± 0.05 kPa
vapor or sublimation pressure (345.61 K): 79.99 ± 0.06 kPa
vapor or sublimation pressure (350.5 K): 93.32 ± 0.06 kPa

Compound: C1CCCCC1 [cyclohexane]
vapor or sublimation pressure (325.65 K): 40 ± 0.04 kPa
vapor or sublimation pressure (333.77 K): 53.33 ± 0.04 kPa
vapor or sublimation pressure (340.43 K): 66.66 ± 0.05 kPa
vapor or sublimation pressure (346.11 K): 79.99 ± 0.06 kPa
vapor or sublimation pressure (351.12 K): 93.32 ± 0.06 kPa

Compound: ClC(Cl)(Cl)Cl [tetrachloromethane]
vapor or sublimation pressure (322.04 K): 40 ± 0.04 kPa
vapor or sublimation pressure (330.08 K): 53.33 ± 0.04 kPa
vapor or sublimation pressure (336.65 K): 66.66 ± 0.05 kPa
vapor or sublimation pressure (342.21 K): 79.99 ± 0.06 kPa
vapor or sublimation pressure (347.09 K): 93.32 ± 0.06 kPa

— the NIST ThermoML archive (doi:10.1016/j.fluid.2007.01.042)
